# From patent US20100003754A1, “METHODS OF DIFFERENTIATING STEM CELLS” (Ossacur AG, priority 2006, published 2010)
# How the values were obtained:
# BMMSC [1] = assay: Quantification of chondroitin sulfate (Alcian blue); type: cell-based, human; conditions: parallel addition of 10 ng/ml TGF-β1
# Description: (§1) The cells were trypsinized and then counted using trypan blue. 60×10^3 or 15×10^3 mesenchymal stem cells were seeded in a 25 cm^2 cell culture bottle or in a 12-well plate. Each vessel was charged with an appropriate amount of standard medium (control group) or a medium which contained the joint or meniscus extract (of bovine origin) in a dilute solution of 1:25 or 1:50. Recombinant TGF-β1 protein (R&D Systems) with a concentration of 10 ng/ml was used for chondrocytic differentiation of the BMMSC as positive control. Cell supernatants were collected and stored at −80° C.
# The cells were washed with the PBS and then incubated with Alcian blue stain (1% Alcian blue in 3% strength acetic acid) for 20 minutes. The cells were decolorized by washing three times with 3% strength acetic acid and washing once with water. To quantify the stain which has been taken up, the cells were solubilized by shaking in 1% strength SDS solution at room temperature for 30 minutes and then heating at 90° C. for one hour. The absorbance was detected at the wavelength of 595 nm.
# BMMSC [2] = assay: Real time RT-PCR of cartilage-specific differentiation markers (SOX9, Aggrecan); type: cell-based, human; conditions: transcription level; treatment with TGF-β1
# Description: Total cellular ribonucleic acid (RNA) was extracted using “NucleoSpin RNA II” from Macherey-Nagel. 1 μg of the RNA was amplified using a “one-step RT-PCR kit” (ABgene, UK). Real time (RT) PCR primers specific for collagen type I, SOX9, Aggrecan and glyceraldehyde-3-phosphate dehydrogenase (GAPDH) were used. Amplification of the so-called housekeeping gene GAPDH was used to verify the quality of the RNA and ensure uniform loading of resolving gels with the samples. A real time reverse transcription PCR was carried out using a LightCycler (Roche Diagnostic). The RT-PCR conditions included an RT step of 20 minutes at 61° C. to produce single-stranded cDNA from mRNA, followed by an inactivation of reverse transcriptase and denaturation at 95° C. for 30 seconds. 40 amplification cycles of one second at 95° C., of 15 seconds at 58° C. and of 13 seconds at 72° C. were carried out. Finally, a cooling step of 30 seconds at 40° C. was carried out.
# BMMSC [3] = assay: Aggrecan immunofluorescence; type: cell-based, human; conditions: day 14; recombinant TGF-β1 only
# Description: The cells were seeded in a density of 15×10^3 in a 12-well plate. 14 days after the treatment with the extracts, the cells were washed with PBS and then fixed with ice-cold 70% strength ethanol for at least 18 hours. The cells were then blocked in 3% strength goat serum (normal goat serum NGS) for one hour, and thereafter mouse anti-Aggrecan antibodies (Chemicon) were used with a concentration of 1 μg/ml and incubated at 4° C. for at least 18 hours. The primary antibodies were then removed, the cells were washed three times with PBS and subsequently incubated with anti-mouse FITC-conjugated IgM (Molecular Probes) in a ratio of 1:1000 for one hour. The secondary antibodies were removed and the cells were washed three times with the PBS. A negative control was carried out with the secondary antibody. After the incubation, the cells were washed, put on supports and inspected using a fluorescence microscope.
# [4] = test system: human mesenchymal stem cells (BMMSC); assay: Cell proliferation, CellTiter 96 (MTT); type: cell-based; conditions: TGF-β1 10 ng/ml; stayed at a lower proliferation rate than the control groups
# Description: as §1
# Investigations on the cell proliferation were carried out using “CellTiter 96 Non-Radio-active” (Promega). This is a method based on 3-(4,5-dimethylthiazol-2-yl)-2,5-diphenyltetrazolium bromide (MTT) which determines the property of metabolically active cells of converting a tetrazolium salt. For example, the conversion of pale yellow MTT by cellular dehydrogenases into the dark blue, water-insoluble formazan is proportional to the activity of the dehydrogenases and thus to the survival rate of the cells. The absorbance is measured at a wavelength of 595 nm. The cells were counted and seeded in a density of […] in a 96-well round-bottom plate. The cell proliferation was determined on day 1, 3, 7 and 14. […] The absorbance was measured at the wavelength of 595 nm with a reference wavelength of 655 nm.
substance,measurement,setting,value
"TGF-β1: Recombinant TGF-β1 protein (R&D Systems), 10 ng/ml, positive control for chondrocytic differentiation",chondroitin sulfate,BMMSC [1],increase in chondroitin sulfate
same,mRNA for aggrecan,BMMSC [2],significantly increased
same,number of aggrecan-positive cells compared with the untreated control samples,BMMSC [3],larger numbers
same,cell proliferation,[4],graduated increase
